# Data as given in patent US20250163104A1, “MACROCYCLIC IMMUNOMODULATORS” (priority 2021, published 2025).
# *1 amine or outer side, *2 acyl side, *3 side chain or, on linkers, in order; H or OH if unused. Where a SMILES comes first, the peptide text is derived from it. Bridges are numbered along the chain shown (N, C = ends). [ ]: non-standard residue; d: D form. The star is where a group is joined. ξ: configuration not given here. Phe(4-CONH2) = NC(=O)c1ccc(C[C@H](N)C(=O)O)cc1; Phe(4-COOH) = N[C@@H](Cc1ccc(C(=O)O)cc1)C(=O)O; Bip = N[C@@H](Cc1ccc(-c2ccccc2)cc1)C(=O)O; Phe(3-Me) = Cc1cccc(C[C@H](N)C(=O)O)c1; Ethylenediamine = C(CN[*:2])N[*:1]; Val(3-OH) = CC(C)(O)[C@H](N)C(=O)O; 4Pal = N[C@@H](Cc1ccncc1)C(=O)O; 3Thi = N[C@@H](Cc1ccsc1)C(=O)O; Cha = N[C@@H](CC1CCCCC1)C(=O)O; Thr(3ξ) = CC(O)[C@H](N)C(=O)O; Carboxymethyl = O=C(O)C*; Orn = NCCC[C@H](N)C(=O)O; Dab = NCC[C@H](N)C(=O)O; Dap = NC[C@H](N)C(=O)O
# Molecular target: T1, human PD-1 / PD-L1-Ig binding on Jurkat cell line over-expressing human PD-1 (Jurkat-PD-1) (Homo sapiens, UniProt Q15116)
# T1 construct: expressed in transfected cells; host or cells: Jurkat
# T1 sequence (Q15116 25-288): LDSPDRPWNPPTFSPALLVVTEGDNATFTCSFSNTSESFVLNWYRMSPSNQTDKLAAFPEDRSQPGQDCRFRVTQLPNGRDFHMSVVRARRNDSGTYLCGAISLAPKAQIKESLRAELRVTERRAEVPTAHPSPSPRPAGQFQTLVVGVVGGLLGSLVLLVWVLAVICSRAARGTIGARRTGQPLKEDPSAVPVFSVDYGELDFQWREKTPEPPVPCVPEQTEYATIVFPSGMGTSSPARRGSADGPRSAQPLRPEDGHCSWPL
# Experiment: Jurkat-PD-1 Cell Binding High-Content Screening Assay (CBA)
# Type: cell-based
# Details: Jurkat-PD-1 cells, PE-labeled PD-L1-Ig 20 nM final; read-out: Jurkat HPD1_PDL1 IC50
# Outline: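 Binding of fluorescent PD-L1-Ig (phycoerythrin linked via the Ig tag, 20 nM final) to PD-1-overexpressing Jurkat cells was imaged after a 2 h, 37° C compound pretreatment and 1 hour ligand incubation.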
row,IC50,SMILES
1,29.6 nM,Cc1cccc(C[C@@H]2NC(=O)[C@H](CC(=O)O)NC(=O)[C@H](Cc3ccc(O)cc3)NC(=O)[C@H](Cc3cnc[nH]3)NC(=O)CSC[C@@H](C(=O)N[C@H](C)C(N)=O)NC(=O)[C@H](CO)NC(=O)[C@H](C(C)(C)O)NC(=O)[C@H](CC3CCCCC3)NC(=O)[C@H](CCN)NC(=O)[C@@H](CC(C)C)NC(=O)[C@H](CCCN)NC(=O)[C@H](Cc3ccc(OCC(=O)O)cc3)NC(=O)[C@H](Cc3ccc(-c4ccccc4)cc3)NC(=O)[C@H](Cc3ccc(OCC(=O)O)cc3)NC2=O)c1 [Compound 2652] ({CH2CO}-HYD[Phe(3-Me)]Y(Carboxymethyl)[Bip]Y(Carboxymethyl)[Orn][dL][Dab][Cha][Val(3-OH)]SC[dA]-NH2; thioether N-14)
2,7.6 nM,Cc1cccc(C[C@@H]2NC(=O)[C@H](CC(=O)O)NC(=O)[C@H](Cc3ccc(OCC(=O)O)cc3)NC(=O)[C@H](CCN)NC(=O)CSC[C@@H](C(=O)N[C@@H](CCN)C(N)=O)NC(=O)[C@H](CO)NC(=O)[C@H](C(C)(C)O)NC(=O)[C@H](CC3CCCCC3)NC(=O)[C@H](Cc3cnc[nH]3)NC(=O)[C@@H](CC(C)C)NC(=O)[C@H](CCCN)NC(=O)[C@H](Cc3ccc(OCC(=O)O)cc3)NC(=O)[C@H](Cc3ccc(-c4ccccc4)cc3)NC(=O)[C@H](Cc3ccc(OCC(=O)O)cc3)NC2=O)c1 [Compound 2653] ({CH2CO}-[Dab]Y(Carboxymethyl)D[Phe(3-Me)]Y(Carboxymethyl)[Bip]Y(Carboxymethyl)[Orn][dL]H[Cha][Val(3-OH)]SC[Dab]-NH2; thioether N-14)
3,6.4 nM,Cc1cccc(C[C@@H]2NC(=O)[C@H](CC(=O)O)NC(=O)[C@H](Cc3ccc(OCC(=O)O)cc3)NC(=O)[C@H](Cc3ccsc3)NC(=O)CSC[C@@H](C(=O)N[C@H](C)C(N)=O)NC(=O)[C@H](CO)NC(=O)[C@H](C(C)(C)O)NC(=O)[C@H](CC3CCCCC3)NC(=O)[C@H](CCN)NC(=O)[C@@H](CC(C)C)NC(=O)[C@H](CCCN)NC(=O)[C@H](Cc3ccc(OCC(=O)O)cc3)NC(=O)[C@H](Cc3ccc(-c4ccccc4)cc3)NC(=O)[C@H](Cc3ccc(OCC(=O)O)cc3)NC2=O)c1 [Compound 2654] ({CH2CO}-[3Thi]Y(Carboxymethyl)D[Phe(3-Me)]Y(Carboxymethyl)[Bip]Y(Carboxymethyl)[Orn][dL][Dab][Cha][Val(3-OH)]SC[dA]-NH2; thioether N-14)
4,110 nM,Cc1cccc(C[C@@H]2NC(=O)[C@H](CC(=O)O)NC(=O)[C@H](Cc3ccc(C(=O)O)cc3)NC(=O)[C@H](Cc3ccncc3)NC(=O)CSC[C@@H](C(=O)N[C@H](CC(N)=O)C(N)=O)NC(=O)[C@H](CO)NC(=O)[C@H](C(C)(C)O)NC(=O)[C@H](CC3CCCCC3)NC(=O)[C@H](CCN)NC(=O)[C@@H](CC(C)C)NC(=O)[C@H](CCCN)NC(=O)[C@H](Cc3ccc(C(=O)O)cc3)NC(=O)[C@H](Cc3ccc(-c4ccccc4)cc3)NC(=O)[C@H](Cc3ccc(OCC(=O)O)cc3)NC2=O)c1 [Compound 2655] ({CH2CO}-[4Pal][Phe(4-COOH)]D[Phe(3-Me)]Y(Carboxymethyl)[Bip][Phe(4-COOH)][Orn][dL][Dab][Cha][Val(3-OH)]SC[dN]-NH2; thioether N-14)
5,25 nM,Cc1cccc(C[C@@H]2NC(=O)[C@H](CC(=O)O)NC(=O)[C@H](Cc3ccc(C(=O)O)cc3)NC(=O)[C@H](Cc3ccsc3)NC(=O)CSC[C@@H](C(=O)N[C@H](CC(N)=O)C(N)=O)NC(=O)[C@H](CO)NC(=O)[C@H](C(C)(C)O)NC(=O)[C@H](CC3CCCCC3)NC(=O)[C@H](CCN)NC(=O)[C@@H](CC(C)C)NC(=O)[C@H](CCCN)NC(=O)[C@H](Cc3ccc(C(=O)O)cc3)NC(=O)[C@H](Cc3ccc(-c4ccccc4)cc3)NC(=O)[C@H](Cc3ccc(OCC(=O)O)cc3)NC2=O)c1 [Compound 2656] ({CH2CO}-[3Thi][Phe(4-COOH)]D[Phe(3-Me)]Y(Carboxymethyl)[Bip][Phe(4-COOH)][Orn][dL][Dab][Cha][Val(3-OH)]SC[dN]-NH2; thioether N-14)
6,8.9 nM,Cc1cccc(C[C@@H]2NC(=O)[C@H](CC(=O)O)NC(=O)[C@H](Cc3ccc(OCC(=O)O)cc3)NC(=O)[C@H](Cc3ccncc3)NC(=O)CSC[C@@H](C(=O)N[C@H](CC(N)=O)C(N)=O)NC(=O)[C@H](CO)NC(=O)[C@H](C(C)(C)O)NC(=O)[C@H](CC3CCCCC3)NC(=O)[C@H](CCN)NC(=O)[C@@H](CC(C)C)NC(=O)[C@H](CCCN)NC(=O)[C@H](Cc3ccc(O)cc3)NC(=O)[C@H](Cc3ccc(-c4ccccc4)cc3)NC(=O)[C@H](Cc3ccc(C(N)=O)cc3)NC2=O)c1 [Compound 2657] ({CH2CO}-[4Pal]Y(Carboxymethyl)D[Phe(3-Me)][Phe(4-CONH2)][Bip]Y[Orn][dL][Dab][Cha][Val(3-OH)]SC[dN]-NH2; thioether N-14)
7,25.9 nM,Cc1cccc(C[C@@H]2NC(=O)[C@H](CC(=O)O)NC(=O)[C@H](Cc3ccc(OCC(=O)O)cc3)NC(=O)[C@H](C(C)O)NC(=O)CSC[C@@H](C(=O)N[C@H](CC(N)=O)C(N)=O)NC(=O)[C@H](CO)NC(=O)[C@H](C(C)(C)O)NC(=O)[C@H](CC3CCCCC3)NC(=O)[C@H](CCN)NC(=O)[C@@H](CC(C)C)NC(=O)[C@H](CCCN)NC(=O)[C@H](Cc3ccc(O)cc3)NC(=O)[C@H](Cc3ccc(-c4ccccc4)cc3)NC(=O)[C@H](Cc3ccc(C(N)=O)cc3)NC2=O)c1 (stereo partly drawn) [Compound 2658] ({CH2CO}-[Thr(3ξ)]Y(Carboxymethyl)D[Phe(3-Me)][Phe(4-CONH2)][Bip]Y[Orn][dL][Dab][Cha][Val(3-OH)]SC[dN]-NH2; thioether N-14)
8,11.8 nM,CC(C)C[C@H]1NC(=O)[C@H](CCCN)NC(=O)[C@H](C(C)C)NC(=O)[C@H](Cc2ccc(-c3ccccc3)cc2)NC(=O)[C@H](C(C)C)NC(=O)[C@H](Cc2c[nH]c3ccccc23)NC(=O)[C@H](CC(=O)O)NC(=O)[C@H](Cc2ccc(OCC(=O)O)cc2)NC(=O)[C@H](Cc2cnc[nH]2)NC(=O)CSC[C@@H](C(=O)N[C@H](C)C(N)=O)NC(=O)[C@H](C(C)O)NC(=O)[C@H](C(C)(C)O)NC(=O)[C@H](CC2CCCCC2)NC(=O)[C@H](CCN)NC1=O (stereo partly drawn) [Compound 2659] ({CH2CO}-HY(Carboxymethyl)DWV[Bip]V[Orn][dL][Dab][Cha][Val(3-OH)][Thr(3ξ)]C[dA]-NH2; thioether N-14)
9,3.9 nM,Cc1cccc(C[C@@H]2NC(=O)[C@H](CC(=O)O)NC(=O)[C@H](Cc3ccc(C(=O)O)cc3)NC(=O)[C@H](Cc3ccsc3)NC(=O)CSC[C@@H](C(=O)N[C@@H](CCN)C(N)=O)NC(=O)[C@H](CO)NC(=O)[C@H](C(C)(C)O)NC(=O)[C@H](CC3CCCCC3)NC(=O)[C@H](CCN)NC(=O)[C@@H](CC(C)C)NC(=O)[C@H](CCCN)NC(=O)[C@H](Cc3ccc(C(=O)O)cc3)NC(=O)[C@H](Cc3ccc(-c4ccccc4)cc3)NC(=O)[C@H](Cc3ccc(OCC(=O)O)cc3)NC2=O)c1 [Compound 2660] ({CH2CO}-[3Thi][Phe(4-COOH)]D[Phe(3-Me)]Y(Carboxymethyl)[Bip][Phe(4-COOH)][Orn][dL][Dab][Cha][Val(3-OH)]SC[Dab]-NH2; thioether N-14)
10,201 nM,Cc1cccc(C[C@@H]2NC(=O)[C@H](CC(=O)O)NC(=O)[C@H](Cc3ccc(C(=O)O)cc3)NC(=O)[C@H](Cc3ccncc3)NC(=O)CSC[C@@H](C(=O)N[C@@H](CCN)C(N)=O)NC(=O)[C@H](CO)NC(=O)[C@H](C(C)(C)O)NC(=O)[C@H](CC3CCCCC3)NC(=O)[C@H](CCN)NC(=O)[C@@H](CC(C)C)NC(=O)[C@H](CCCN)NC(=O)[C@H](Cc3ccc(C(=O)O)cc3)NC(=O)[C@H](Cc3ccc(-c4ccccc4)cc3)NC(=O)[C@H](Cc3ccc(OCC(=O)O)cc3)NC2=O)c1 [Compound 2661] ({CH2CO}-[4Pal][Phe(4-COOH)]D[Phe(3-Me)]Y(Carboxymethyl)[Bip][Phe(4-COOH)][Orn][dL][Dab][Cha][Val(3-OH)]SC[Dab]-NH2; thioether N-14)
11,8.3 nM,CCC(C)[C@@H]1NC(=O)[C@H](Cc2ccc(-c3ccccc3)cc2)NC(=O)[C@H](C(C)C)NC(=O)[C@H](Cc2c[nH]c3ccccc23)NC(=O)[C@H](CC(=O)O)NC(=O)[C@H](Cc2ccc(OCC(=O)O)cc2)NC(=O)[C@H](Cc2cc[nH]c2)NC(=O)CSC[C@@H](C(=O)N[C@H](C)C(N)=O)NC(=O)[C@H](C(C)O)NC(=O)[C@H](C(C)(C)O)NC(=O)[C@H](CC2CCCCC2)NC(=O)[C@H](CCN)NC(=O)[C@@H](CC(C)C)NC(=O)[C@H](CCCN)NC1=O (stereo partly shown) [Compound 2662]
12,11.6 nM,Cc1cccc(C[C@@H]2NC(=O)[C@H](CC(=O)O)NC(=O)[C@H](Cc3ccc(OCC(=O)O)cc3)NC(=O)[C@H](C(C)O)NC(=O)CSC[C@@H](C(=O)N[C@@H](CO)C(=O)NCCN)NC(=O)[C@H](C(C)O)NC(=O)[C@H](C(C)(C)O)NC(=O)[C@H](CC3CCCCC3)NC(=O)[C@H](CCN)NC(=O)[C@@H](CC(C)C)NC(=O)[C@H](CCCN)NC(=O)[C@H](Cc3ccc(O)cc3)NC(=O)[C@H](Cc3ccc(-c4ccccc4)cc3)NC(=O)[C@H](Cc3ccc(C(N)=O)cc3)NC2=O)c1 (stereo partly drawn) [Compound 2663] ({CH2CO}-[Thr(3ξ)]Y(Carboxymethyl)D[Phe(3-Me)][Phe(4-CONH2)][Bip]Y[Orn][dL][Dab][Cha][Val(3-OH)][Thr(3ξ)]CS-Ethylenediamine; thioether N-14)
13,15.2 nM,Cc1cccc(C[C@@H]2NC(=O)[C@H](CC(=O)O)NC(=O)[C@H](Cc3ccc(OCC(=O)O)cc3)NC(=O)[C@H](C(C)O)NC(=O)CSC[C@@H](C(=O)N[C@@H](CN)C(=O)NCCN)NC(=O)[C@H](C(C)O)NC(=O)[C@H](C(C)(C)O)NC(=O)[C@H](CC3CCCCC3)NC(=O)[C@H](CCN)NC(=O)[C@@H](CC(C)C)NC(=O)[C@H](CCCN)NC(=O)[C@H](Cc3ccc(O)cc3)NC(=O)[C@H](Cc3ccc(-c4ccccc4)cc3)NC(=O)[C@H](Cc3ccc(C(N)=O)cc3)NC2=O)c1 (stereo partly drawn) [Compound 2664] ({CH2CO}-[Thr(3ξ)]Y(Carboxymethyl)D[Phe(3-Me)][Phe(4-CONH2)][Bip]Y[Orn][dL][Dab][Cha][Val(3-OH)][Thr(3ξ)]C[Dap]-Ethylenediamine; thioether N-14)
